21 compounds from patent publication US9346809B2 (LEO PHARMA A/S, priority 2009, dated 2016) can be followed below.

Each structure is given as a SMILES string. pEC50: −log10 of the molar value.

Holding throughout (assay type): biochemical
Assay [1] addresses T1, JAK2 (catalytic domain, His-tag) (Homo sapiens, UniProt O60674).
T1 construct: All four purified enzymes contain only the catalytic domain; His (N); purchased Carna Biosciences, Inc; host or cells: baculovirus expression system
The assay is described as follows: JAK kinase assay (HTRF, phosphorylation of TK substrate-biotin), JAK2. As to conditions: HTRF assay, ATP at Km (4 μM); read-out: JAK2 kinase inhibitory activity (EC50). The method, boiled down:
(§1)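 EC50 values come from HTRF signal of phospho-peptide detected by STK Ab Cryptate and Streptavidin-XL665 after overnight incubation. Reactions ran 20-30 min at RT in Hepes pH 7.0, 0.01% BSA, 1 mM DTT, with ATP at Km: 7, 4, 2 and 13 μM for JAK1, JAK2, JAK3, TYK2.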

The target in assay [2] is T2, JAK3 (catalytic domain, His-tag) (Homo sapiens, UniProt P52333).
T2 construct: All four purified enzymes contain only the catalytic domain; His (N); purchased Carna Biosciences, Inc; host or cells: baculovirus expression system
T2 sequence (P52333 822-1111 limits assumed): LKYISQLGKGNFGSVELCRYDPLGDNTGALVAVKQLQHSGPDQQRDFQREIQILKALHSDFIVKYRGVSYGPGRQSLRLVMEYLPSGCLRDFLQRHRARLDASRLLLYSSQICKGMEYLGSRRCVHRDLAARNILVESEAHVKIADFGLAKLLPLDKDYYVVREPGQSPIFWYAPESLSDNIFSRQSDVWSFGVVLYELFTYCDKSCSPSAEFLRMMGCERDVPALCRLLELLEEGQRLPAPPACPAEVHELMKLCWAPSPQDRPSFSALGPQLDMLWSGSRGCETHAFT
The assay is described as follows: JAK kinase assay (HTRF, phosphorylation of TK substrate-biotin), JAK3. As to conditions: HTRF assay, ATP at Km (2 μM); read-out: JAK3 kinase inhibitory activity (EC50). The method, boiled down:
as §1

The target of assay [3] is T3, JAK1 (aa 850-1154, catalytic domain, GST-tag) (Homo sapiens, UniProt P23458).
T3 construct: JAK1 (aa 850-1154) and TYK2 (aa 871-1187) are expressed with an N-terminally fused GST-tag; GST (N); purchased Carna Biosciences, Inc; host or cells: baculovirus expression system
T3 sequence (P23458 850-1154): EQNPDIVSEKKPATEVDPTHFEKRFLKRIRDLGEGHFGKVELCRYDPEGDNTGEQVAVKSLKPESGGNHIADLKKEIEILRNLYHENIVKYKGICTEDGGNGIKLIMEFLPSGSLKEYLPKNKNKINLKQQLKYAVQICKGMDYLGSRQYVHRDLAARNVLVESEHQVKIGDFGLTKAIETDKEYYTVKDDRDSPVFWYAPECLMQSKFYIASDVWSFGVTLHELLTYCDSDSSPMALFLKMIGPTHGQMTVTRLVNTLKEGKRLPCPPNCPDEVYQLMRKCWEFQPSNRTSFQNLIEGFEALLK
The assay can be described thus: JAK kinase assay (HTRF, phosphorylation of TK substrate-biotin), JAK1. As to conditions: HTRF assay, ATP at Km (7 μM); read-out: JAK1 kinase inhibitory activity (EC50). In short, it runs like this:
as §1

Assay [4] concerns the target T4, TYK2 (aa 871-1187, catalytic domain, GST-tag) (Homo sapiens, UniProt P29597).
T4 construct: JAK1 (aa 850-1154) and TYK2 (aa 871-1187) are expressed with an N-terminally fused GST-tag; GST (N); purchased Carna Biosciences, Inc; host or cells: baculovirus expression system
T4 sequence (P29597 871-1187): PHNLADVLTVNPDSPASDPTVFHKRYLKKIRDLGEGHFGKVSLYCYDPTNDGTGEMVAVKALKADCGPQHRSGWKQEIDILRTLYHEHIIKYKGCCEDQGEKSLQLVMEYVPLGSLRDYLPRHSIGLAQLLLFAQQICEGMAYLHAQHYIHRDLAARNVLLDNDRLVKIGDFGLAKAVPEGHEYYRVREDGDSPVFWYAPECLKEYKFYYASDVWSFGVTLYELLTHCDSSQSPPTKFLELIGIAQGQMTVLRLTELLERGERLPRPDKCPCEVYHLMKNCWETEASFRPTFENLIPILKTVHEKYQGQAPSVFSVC
The assay can be described thus: JAK kinase assay (HTRF, phosphorylation of TK substrate-biotin), TYK2. As to conditions: HTRF assay, ATP at Km (13 μM); read-out: TYK2 kinase inhibitory activity (EC50). The method, boiled down:
as §1

T1 sequence (O60674 849-1124 limits assumed): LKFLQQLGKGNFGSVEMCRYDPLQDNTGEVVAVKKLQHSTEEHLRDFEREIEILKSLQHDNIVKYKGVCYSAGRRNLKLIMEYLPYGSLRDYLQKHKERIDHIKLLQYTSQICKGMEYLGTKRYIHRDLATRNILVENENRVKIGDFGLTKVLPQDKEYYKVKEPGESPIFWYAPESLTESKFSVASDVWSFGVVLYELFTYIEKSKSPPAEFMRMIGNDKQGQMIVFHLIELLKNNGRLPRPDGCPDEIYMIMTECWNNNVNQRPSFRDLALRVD

As for `S=C(c1cc2c(s1)CCC2)N1CCN(c2ncnc3[nH]ccc23)CC12CC2` [Example 440, (5,6-Dihydro-4H-cyclopenta[b]thiophen-2-yl)-[7-(7H-pyrrolo[2,3-d]Pyrimidin-4-yl)-4,7-diaza-spiro[2.5]oct-4-yl]-methanethione], the pEC50 is over 7.00 in assay [1], 6.30 to 7.00 in assay [2], over 7.00 in assay [3] and 6.30 to 7.00 in assay [4].
Regarding `N#Cc1ccc(CC(=S)N2CCN(c3ncnc4[nH]ccc34)CC23CC3)cc1` [Example 441, 4-{2-[7-(7H-Pyrrolo[2,3-d]pyrimidin-4-yl)-4,7-diaza-spiro[2.5]oct-4-yl]-2-thioxo-ethyl}-benzonitrile], the pEC50 in assay [1], in assay [2], in assay [3] and in assay [4] was over 7.00 in each case.
Consider `O=C(COc1ccccc1)N1CCN(c2ncnc3[nH]ccc23)CC12CC2` [Example 442, 2-Phenoxy-1-[7-(7H-pyrrolo[2,3-d]pyrimidin-4-yl)-4,7-diaza-spiro[2.5]oct-4-yl]-ethanone], for which the pEC50 in assay [1] is over 7.00; in assay [2], over 7.00; in assay [3], over 7.00; in assay [4], 6.30 to 7.00.
Consider `COCC(=O)N1CCN(c2ncnc3[nH]ccc23)CC12CC2` [Example 443, 2-Methoxy-1-[7-(7H-pyrrolo[2,3-d]pyrimidin-4-yl)-4,7-diaza-spiro[2.5]oct-4-yl]-ethanone], for which the negative logarithm of the EC50 (pEC50) is over 7.00 in assay [1], under 6.30 in assay [2], over 7.00 in assay [3] and under 6.30 in assay [4].
With `CCCCNC(=O)N1CCN(c2ncnc3[nH]ccc23)CC12CC2` [Example 444, 7-(7H-Pyrrolo[2,3-d]pyrimidin-4-yl)-4,7-diaza-spiro[2.5]octane-4-carboxylic acid butylamide], the negative-log EC50 (pEC50) in assay [1] was over 7.00; in assay [2], 6.30 to 7.00; in assay [3], over 7.00; in assay [4], under 6.30.
In the case of `O=C(NCCc1ccccc1)N1CCN(c2ncnc3[nH]ccc23)CC12CC2` [Example 445, 7-(7H-Pyrrolo[2,3-d]pyrimidin-4-yl)-4,7-diaza-spiro[2.5]octane-4-carboxylic acid phenethyl-amide], the pEC50 is over 7.00 in assay [1], 6.30 to 7.00 in assay [2], over 7.00 in assay [3] and under 6.30 in assay [4].
Regarding `O=C(Oc1ccc(Cl)cc1)N1CCN(c2ncnc3[nH]ccc23)CC12CC2` [Example 446, 7-(7H-Pyrrolo[2,3-d]pyrimidin-4-yl)-4,7-diaza-spiro[2.5]octane-4-carboxylic acid 4-chloro-phenyl ester], the pEC50 in assay [1] was over 7.00; in assay [2], 6.30 to 7.00; in assay [3], over 7.00; in assay [4], under 6.30.
Regarding `COCC(=S)N1CCN(c2ncnc3[nH]ccc23)CC12CC2` [Example 447, 2-Methoxy-1-[7-(7H-pyrrolo[2,3-d]pyrimidin-4-yl)-4,7-diaza-spiro[2.5]oct-4-yl]-ethanethione], the pEC50 in assay [1] was over 7.00; in assay [2] it was 6.30 to 7.00; in assay [3], over 7.00; in assay [4] it was 6.30 to 7.00.
For `S=C(COc1ccccc1)N1CCN(c2ncnc3[nH]ccc23)CC12CC2` [Example 448, 2-Phenoxy-1-[7-(7H-pyrrolo[2,3-d]pyrimidin-4-yl)-4,7-diaza-spiro[2.5]oct-4-yl]-ethanethione], the pEC50 in assay [1] was over 7.00; in assay [2], over 7.00; in assay [3], over 7.00; in assay [4] it was 6.30 to 7.00.
For the compound `CC(C)(C)[S+]([O-])N1CCN(c2ncnc3[nH]ccc23)CC12CC2` (stereo not drawn) [Example 449, 4-[4-(2-Methyl-propane-2-sulfinyl)-4,7-diaza-spiro[2.5]oct-7-yl]-7H-pyrrolo[2,3-d]pyrimidine], the pEC50 in assay [1] was 6.30 to 7.00; in assay [2] it was under 6.30; in assay [3] it was under 6.30; in assay [4] it was under 6.30.
Take `O=C(OC1CCCC1)N1CCN(c2ncnc3[nH]ccc23)CC12CC2` [Example 450, 7-(7H-Pyrrolo[2,3-d]pyrimidin-4-yl)-4,7-diaza-spiro[2.5]octane-4-carboxylic acid cyclopentyl ester]: the pEC50 in assay [1], in assay [2], in assay [3] and in assay [4] was over 7.00 in each case.
As for `O=C(CNc1ccccc1)N1CCN(c2ncnc3[nH]ccc23)CC12CC2` [Example 451, 2-Phenylamino-1-[7-(7H-pyrrolo[2,3-d]pyrimidin-4-yl)-4,7-diaza-spiro[2.5]oct-4-yl]-ethanone], the negative-log EC50 (pEC50) in assay [1] was over 7.00; in assay [2], 6.30 to 7.00; in assay [3], over 7.00; in assay [4], under 6.30.
For `NS(=O)(=O)c1ccc(OCCC(=O)N2CCN(c3ncnc4[nH]ccc34)CC23CC3)cc1` [Example 452, 4-{3-Oxo-3-[7-(7H-pyrrolo[2,3-d]pyrimidin-4-yl)-4,7-diaza-spiro[2.5]oct-4-yl]-propoxy}-benzenesulfonamide], the negative logarithm of the EC50 (pEC50) in assay [1] was over 7.00; in assay [2] it was over 7.00; in assay [3], over 7.00; in assay [4], under 6.30.
Turning to `NS(=O)(=O)c1ccc(NCCC(=O)N2CCN(c3ncnc4[nH]ccc34)CC23CC3)cc1` [Example 453, 4-{3-Oxo-3-[7-(7H-pyrrolo[2,3-d]pyrimidin-4-yl)-4,7-diaza-spiro[2.5]oct-4-yl]-propylamino}-benzenesulfonamide], the negative-log EC50 (pEC50) was over 7.00 in assay [1], 6.30 to 7.00 in assay [2], over 7.00 in assay [3] and under 6.30 in assay [4].
For `NS(=O)(=O)c1ccc(NCC(=O)N2CCN(c3ncnc4[nH]ccc34)CC23CC3)cc1` [Example 454, 4-{2-Oxo-2-[7-(7H-pyrrolo[2,3-d]pyrimidin-4-yl)-4,7-diaza-spiro[2.5]oct-4-yl]-ethylamino}-benzenesulfonamide], the negative-log EC50 (pEC50) in assay [1] is over 7.00; in assay [2] it was 6.30 to 7.00; in assay [3], over 7.00; in assay [4] it was 6.30 to 7.00.
For the compound `CSCCC(=O)N1CCN(c2ncnc3[nH]ccc23)CC12CC2` [Example 455, 3-Methylsulfanyl-1-[7-(7H-pyrrolo[2,3-d]pyrimidin-4-yl)-4,7-diaza-spiro[2.5]oct-4-yl]-propan-1-one], the pEC50 in assay [1] is over 7.00; in assay [2], over 7.00; in assay [3], over 7.00; in assay [4] it was 6.30 to 7.00.
As for `COCCC(=O)N1CCN(c2ncnc3[nH]ccc23)CC12CC2` [Example 456, 3-Methoxy-1-[7-(7H-pyrrolo[2,3-d]pyrimidin-4-yl)-4,7-diaza-spiro[2.5]oct-4-yl]-propan-1-one], the pEC50 in assay [1] is 6.30 to 7.00; in assay [2], 6.30 to 7.00; in assay [3], 6.30 to 7.00; in assay [4], under 6.30.
Turning to `CN(C)CCC(=O)N1CCN(c2ncnc3[nH]ccc23)CC12CC2` [Example 457, 3-Dimethylamino-1-[7-(7H-pyrrolo[2,3-d]pyrimidin-4-yl)-4,7-diaza-spiro[2.5]oct-4-yl]-propan-1-one], the negative-log EC50 (pEC50) in assay [1], in assay [2], in assay [3] and in assay [4] was under 6.30 throughout.
For `CN(CCC#N)S(=O)(=O)N1CCN(c2ncnc3[nH]ccc23)CC12CC2` [Example 458, 7-(7H-Pyrrolo[2,3-d]pyrimidin-4-yl)-4,7-diaza-spiro[2.5]octane-4-sulfonic acid (2-cyano-ethyl)-methyl-amide], the negative-log EC50 (pEC50) in assay [1], in assay [2], in assay [3] and in assay [4] was over 7.00 each time.
In the case of `CCN(CC)S(=O)(=O)N1CCN(c2ncnc3[nH]ccc23)CC12CC2` [Example 459, 7-(7H-Pyrrolo[2,3-d]pyrimidin-4-yl)-4,7-diaza-spiro[2.5]octane-4-sulfonic acid diethylamide], the pEC50 is over 7.00 in assay [1], 6.30 to 7.00 in assay [2], over 7.00 in assay [3] and 6.30 to 7.00 in assay [4].
For `CN(C1CCCCC1)S(=O)(=O)N1CCN(c2ncnc3[nH]ccc23)CC12CC2` [Example 460, 7-(7H-Pyrrolo[2,3-d]pyrimidin-4-yl)-4,7-diaza-spiro[2.5]octane-4-sulfonic acid cyclohexyl-methyl-amide], the pEC50 in assay [1] is over 7.00; in assay [2] it was 6.30 to 7.00; in assay [3] it was over 7.00; in assay [4] it was 6.30 to 7.00.
